In patent US12384751B2, “Allosteric activators of the ALPHA1A-adrenergic receptor” (The Cleveland Clinic Foundation, priority 2019, dated 2025):
Entries after “also recorded” stand apart in the source; their conditions may differ.

Experiments:
[1] = Mean arterial blood pressure in 3×TG AD mice; type: in vivo; settings: 3×TG mice
Method: A 10 month continuous dose study was performed in the 3×TG Alzheimer's Disease (AD) mouse model containing the triple mutations (APP(swe), PS1(M146V), tau(P301L)) from Jackson labs. Synaptic dysfunction and LTP deficits manifests in an age-related manner beginning from 2-6 months that occurs prior to Aβ pathology (87, herein incorporated by reference). Hippocampal-dependent cognitive impairments begin at 4-6 months depending upon the strain (88-89, herein incorporated by reference). 3×Tg mice have documented cognitive deficits in the Morris water maze (88) and Barnes maze (9, 90). Deficits in long-term synaptic plasticity correlate with the accumulation of intraneuronal Aβ (88). 3×Tg have decreased neurogenesis in both SGZ and SVZ before Aβ pathology and treatments that increased neurogenesis improved memory in 3×TG mice (18-19, herein incorporated by reference).
(§1) AD mice were first randomized and sorted into control or treatment groups. […] 14 AD mice from each treatment group received Compound 3 in the drinking water (2.611 mg/kg/bw) to deliver a daily dose near the peak potentiation of the cAMP response in the brain at 10^−8M based upon the PAM assay and pharmacokinetics. This was achieved by adding Compound 3 to the drinking water at 32 uM, assuming the mice drink 6 ml/day, with only 10% of bioavailable drug reaching the brain. The drug was administered in the drinking water for 10 months, starting at age 2 months, then subjected to either different cognitive behavioral tests or electrophysiology at age 12 months to maximize the manifestations of AD symptoms in these mice. Mice are maintained on the drug for the duration of the studies and blinded to the operator.
At 12 months of age mice were subjected to long term potentiation (LTP) (FIG. 25).
Assessment: Blood pressure. […]

[2] = test system: 3×TG Alzheimer's Disease (AD) mouse model; test: Shortened Barnes Maze in 3×TG AD mice; type: in vivo
Method: as §1
Barnes Maze. The Barnes maze is used to assess spatial learning and memory and consists of a white, flat, circular platform elevated above ground with 40 holes, under which one escape box is located. Three visual cues are placed surrounding the maze and their locations in relation to the escape box and remain constant. Two floodlights and four fans above the maze provide aversion. […] At the start of each trial, a mouse is placed in the center of the maze under a holding chamber for 30 seconds. When the chamber is lifted, the mouse is allowed up to 300 seconds to enter the escape box. […] […] The procedure for the memory trials is the same as learning, except the mice are allowed only one attempt to solve the maze each day. Data includes the time to solve, number of errors made, and distance traveled. Errors are defined as when a mouse poked more than three-quarters of its head into any hole other than the appropriate escape hole. Distance traveled is measured using ANY-MAZE software.

[3] = test system: 3×TG Alzheimer's Disease (AD) mouse model; test: Tone-induced fear conditioning in 3×TG AD mice; type: in vivo
Method: as §1

α1A-AR = molecular target: T1, α1A-AR (Homo sapiens, UniProt P35348); test: cAMP assay at α1A-AR; type: cell-based; parameters: expressed in transfected cells; host or cells: Rat-1 fibroblast cells
T1 sequence (P35348 1-466): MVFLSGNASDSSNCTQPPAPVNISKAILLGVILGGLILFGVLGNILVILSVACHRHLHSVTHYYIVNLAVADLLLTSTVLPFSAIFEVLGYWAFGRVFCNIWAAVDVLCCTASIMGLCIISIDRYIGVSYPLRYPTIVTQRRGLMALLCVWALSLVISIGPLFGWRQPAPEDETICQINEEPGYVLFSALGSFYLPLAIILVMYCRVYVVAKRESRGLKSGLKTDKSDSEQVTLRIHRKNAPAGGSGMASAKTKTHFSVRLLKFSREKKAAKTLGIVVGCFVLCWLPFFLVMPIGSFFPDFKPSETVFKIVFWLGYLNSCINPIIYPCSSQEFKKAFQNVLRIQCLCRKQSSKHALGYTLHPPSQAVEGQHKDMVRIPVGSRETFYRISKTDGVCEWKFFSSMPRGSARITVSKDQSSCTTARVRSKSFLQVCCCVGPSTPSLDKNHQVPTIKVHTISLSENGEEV
Method: cAMP assay: Cells expressing a single α1-adrenergic receptor subtype are washed and re-plated into 24-well plates in DMEM media without serum at approximately 2.4×10^4 cells/well. Cells are allowed to rest till the next day in a CO2 incubator at 37° C. The cells are washed twice with DMEM (no serum), then 1 ml of DMEM is added to each well. Cells are pre-incubated for 45 mins-1 hour at 37° C. in a CO2 incubator with 10 uM propranolol, followed by 100 uM IBMX for 30 minutes. Final DMSO concentration is at 0.05%. Norepinephrine or epinephrine is added in a dose response (1 dose per well) in addition to one of the Compounds 1-10 at one concentration (i.e. 10^−5M). Cells are incubated for another 30 mins at 37° C. in a CO2 incubator. The reaction is concluded by aspirating the media and adding 0.1M HCL. The mixture is incubated for 20 mins at room temperature. The cells are scraped and suspended until homogenous. The mixture is centrifuged at 1000 g for 10 mins and the supernatant assayed the same day according to a manufacturer's cAMP kit (Cayman Select Cyclic AMP EIA kit #501040).

[4] = drinking water 2.611 mg/kg/bw, N=13-16

CC(C)Cc1c(OCC2=NCCN2)cccc1N(C)S(C)(=O)=O [Compound 3, N-[3-(4,5-Dihydro-1H-imidazol-2-ylmethoxy)-2-isobutyl-phenyl]-N-methyl-methanesulfonamide]
blood pressure, treated vs untreated [1]: no significant differences; also recorded: does not affect blood pressure
mean arterial blood pressure, treated females (F) [1, 4]: 85±2.4
mean arterial blood pressure, treated males (M) [1, 4]: 97±3
time to find the escape hole, day 5 memory test ([2]; AD mice, approached significance): decreased the time to find the escape hole
finding the correct escape hole (number of head pokes) ([2]; female AD mice, day 5 probe): increase the ability of female AD mice to find the correct escape hole
latency to the escape hole during training period ([2]; male AD mice, 5 day training): significantly decrease the latency
velocity after tone (freezing) ([3]; female AD mice): slower movement speed
active time after tone (freezing) ([3]; male AD mice): less active time
PAM activity / PAM type (α1A-AR): Type I PAM
dose at which potentiation of norepinephrine cAMP response is maximal (α1A-AR): 10^−8 M
effect on epinephrine-mediated cAMP response at the α1A-AR (α1A-AR; 10^−5M to 10^−7M of compound): no effect
effect on norepinephrine-mediated cAMP response at the α1A-AR (α1A-AR; 10^−5M to 10^−9M of compound): potentiates
stimulation of cAMP by the compound by itself (α1A-AR; compound alone): cannot stimulate
potentiation of the cAMP response of norepinephrine (α1A-AR; dose-response of compound): 50%
